# Experimental data from patent publication US8697692B2, “Pyrrolo [3,2-c] pyridine-4-one 2-indolinone protein kinase inhibitors” (Shanghai Hengrui Pharmaceutical Co., Ltd., priority 2006, dated 2014).
# System: HUVEC cell
# Assay: Cell Proliferation Inhibition VEGF-R2 Assay (SRB method)
# Type: cell-based, homo sapient
# Details: Homo sapiens; HUVEC cells, 72 hours exposure, Sulforhodamine B; read-out: IC50 (VEGFR/HUVEC)
# Outline: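 HUVECs grown to ~85% confluence in DMEM/F12 + 10% FBS, then exposed to 6–7 compound concentrations for 72 h at 37 °C, 5% CO2; vehicle controls received 0.5% DMSO medium.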
row,Structure (SMILES),IC50 [µM]
1,"CCN(CC)CCN1CCc2[nH]c(/C=C3\C(=O)Nc4ncnc(Nc5ccc(F)c(Cl)c5)c43)c(C)c2C1=O [Example 12, 4-(3-Chlor O-4-fluoro-phenylamino)-5-[5-(2-diethylamino-ethyl)-3-methyl-4-oxo-4,5,6,7-tetrahydro-1H-pyrrolo[3,2-c]pyridine-2-ylmethylene]-5,7-dihydro-pyrrolo[2,3-d]pyrimidin-6-one]",3
2,"CCN(CC)CCN1CCc2[nH]c(/C=C3\C(=O)Nc4cccc(C5CCNCC5)c43)c(C)c2C1=O [Example 31, 5-(2-Diethylamino-ethyl)-3-methyl-2-(2-oxo-4-piperidin-4-yl-1,2-dihydro-indol-3-ylidenemethyl)-1,5,6,7-tetrahydro-pyrrolo[3,2-c]pyridin-4-one]",0.19
3,"Cc1c(/C=C2\C(=O)Nc3cccc(-c4cccc(F)c4F)c32)[nH]c2c1C(=O)N(CCN1CCCC1)CC2 [Example 59, 2-[4-(2,3-Difluoro-phenyl)-2-oxo-1,2-dihydro-indol-3-ylidenemethyl]-3-methyl-5-(2-pyrrolidin-1-yl-ethyl)-1,5,6,7-tetrahydro-pyrrolo[3,2-c]pyridin-4-one]",0.3
4,"Cc1c(/C=C2\C(=O)Nc3ncc(Br)cc32)[nH]c2c1C(=O)N(CCN1CCOCC1)CC2 [Example 50, 2-(5-Bromo-2-oxo-1,2-dihydro-pyrrolo[2,3-b]pyridin-3-ylidenemethyl)-3-methyl-5-(2-morpholin-4-yl-ethyl)-1,5,6,7-tetrahydro-pyrrolo[3,2-c]pyridin-4-one]",1.16
5,"Cc1c(/C=C2\C(=O)Nc3ccc(Cl)cc32)[nH]c2c1C(=O)N(CCN1CCOCC1)CC2 [Example 16, 2-(5-Chloro-2-oxo-1,2-dihydro-indol-3-ylidenemethyl)-3-methyl-5-(2-morpholin-4-yl-ethyl)-1,5,6,7-tetrahydro-pyrrolo[3,2-c]pyridin-4-one]",0.58
6,"Cc1c(/C=C2\C(=O)Nc3ncnc(Nc4ccc(F)c(Cl)c4)c32)[nH]c2c1C(=O)N(CCN1CCOCC1)CC2 [Example 24, 4-(3-Chloro-4-fluoro-phenylamino)-5-[3-methyl-5-(2-morpholin-4-yl-ethyl)-4-oxo-4,5,6,7-tetrahydro-1H-pyrrolo[3,2-c]pyridine-2-ylmethylenene]-5,7-dihydro-pyrrolo[2,3-d]pyrimidin-6-one]",2.42
7,"CCN(CC)CCN1CCc2[nH]c(/C=C3\C(=O)Nc4cccc(-c5cccc(F)c5F)c43)c(C)c2C1=O [Example 39, 5-(2-diethylamino-ethyl)-2-[4-(2,3-difluoro-phenyl)-2-oxo-1,2-dihydro-indol-3-ylidenemethyl]-3-methyl-1,5,6,7-tetrahydro-pyrrolo[3,2-c]pyridin-4-one]",0.05
8,"CCN(CC)CCN1CCc2[nH]c(/C=C3\C(=O)Nc4cccc(-c5cccc(Cl)c5F)c43)c(C)c2C1=O [Example 36, 2-[4-(3-Chloro-2-fluoro-phenyl)-2-oxo-1,2-dihydro-indol-3-ylidenemethyl]-5-(2-diethylamino-ethyl)-3-methyl-1,5,6,7-tetrahydro-pyrrolo[3,2-c]pyridin-4-one]",0.11
9,"CCN(CC)CCN1CCc2[nH]c(/C=C3\C(=O)Nc4cccc(CCO)c43)c(C)c2C1=O [Example 37, 5-(2-Diethylamino-ethyl)-2-[4-(2-hydroxy-ethyl)-2-oxo-1,2-dihydro-indol-3-ylidenemethyl]-3-methyl-1,5,6,7-tetrahydro-pyrrolo[3,2-c]pyridin-4-one]",0.11
10,"CCN(CC)CCN1CCc2[nH]c(/C=C3\C(=O)Nc4ccc(OC)cc43)c(C)c2C1=O [Example 35, 5-(2-Diethylamino-ethyl)-2-(5-methoxy-2-oxo-1,2-dihydro-indol-3-ylidenemethyl)-3-methyl-1,5,6,7-tetrahydro-pyrrolo[3,2-c]pyridin-4-one]",0.13
11,"Cc1c(/C=C2\C(=O)Nc3cccc(C4CCNCC4)c32)[nH]c2c1C(=O)N(CCN1CCOCC1)CC2 [Example 52, 3-Methyl-5-(2-morpholin-4-yl-ethyl)-2-(2-oxo-4-piperidin-4-yl-1,2-dihydro-indol-3-ylidenemethyl)-1,5,6,7-tetrahydro-pyrrolo[3,2-c]pyridin-4-one]",0.26
12,"CCN(CC)CCN1CCc2[nH]c(/C=C3\C(=O)Nc4cccc(Br)c43)c(C)c2C1=O [Example 30, 2-(4-Bromo-2-oxo-1,2-dihydro-indol-3-ylidenemethyl)-5-(2-diethylamino-ethyl)-3-methyl-1,5,6,7-tetrahydro-pyrrolo[3,2-c]pyridin-4-one]",0.22
13,"Cc1c(/C=C2\C(=O)Nc3cccc(CCO)c32)[nH]c2c1C(=O)N(CCN1CCOCC1)CC2 [Example 42, 2-[4-(2-Hydroxy-ethyl)-2-oxo-1,2-dihydro-indol-3-ylidenemethyl]-3-methyl-5-(2-morpholin-4-yl-ethyl)-1,5,6,7-tetrahydro-pyrrolo[3,2-c]pyridin-4-one]",0.28
14,"Cc1c(/C=C2\C(=O)Nc3ccc(Br)cc32)[nH]c2c1C(=O)N(CCN1CCCC1)CC2 [Example 40, 2-(5-Bromo-2-oxo-1,2-dihydro-indol-3-ylidenemethyl)-3-methyl-5-(2-pyrrolidin-1-yl-ethyl)-1,5,6,7-tetrahydro-pyrrolo[3,2-c]pyridin-4-one]",0.13
15,"CCN(CC)CCN1CCc2[nH]c(/C=C3\C(=O)Nc4cccc(-c5ccc(Cl)cc5F)c43)c(C)c2C1=O [Example 34, 2-[4-(4-Chloro-2-fluoro-phenyl)-2-oxo-1,2-dihydro-indol-3-ylidenemethyl]-5-(2-diethylamino-ethyl)-3-methyl-1,5,6,7-tetrahydro-pyrrolo[3,2-c]pyridin-4-one]",0.12
